Measured values from patent US11554171B2, “Compounds and methods for the targeted degradation of bromodomain-containing proteins” (Arvinas Operations, Inc., priority 2015, dated 2023).

Tested on: c-myc in 22RV-1 cells
Assay: Human c-myc ELISA assay
Format: cell-based
Settings: Homo sapiens; for Emax: 22Rv1, 18 h, read-out: Degradation of BRD4: Maximum inhibition (%) c-Myc ELISA in 22RV1 cells; for DC50: 22Rv1, read-out: Degradation of BRD4: DC50 (uM) c-Myc ELISA in 22RV1 cells
Outline: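 c-myc levels measured by ELISA in RIPA lysates of 22RV-1 cells, calibrated with a 333-0 pg/ml standard curve. Lysates came from cells exposed for 18 h to an 8-point, 1:3 dose series starting at 300 nM or 1 μM final in 0.1% DMSO. Suppression potency given as DC50.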

Compound	DC50	Emax
Cc1ncsc1-c1ccc(CNC(=O)[C@@H]2C[C@@H](O)CN2C(=O)[C@@H](NC(=O)COCCn2cc(-c3ccc([C@@H](C)NC(=O)C[C@@H]4N=C(c5ccc(Cl)cc5)c5c(sc(C)c5C)-n5c(C)nnc54)cc3)cn2)C(C)(C)C)cc1 [Example 78]	0.1 to 1 µM	86.7%
Cc1ncsc1-c1ccc([C@H](CO)NC(=O)[C@@H]2C[C@@H](O)CN2C(=O)[C@@H](NC(=O)CN2CCC(O[C@H]3C[C@H](NC(=O)C[C@@H]4N=C(c5ccc(Cl)cc5)c5c(sc(C)c5C)-n5c(C)nnc54)C3)CC2)C(C)(C)C)cc1 [Example 351, (2S,4R)-1-[(2S)-3,3-dimethyl-2-(2-{4-[(1,3-trans)-3-{2-[(9S)-7-(4-chlorophenyl)-4,5,13-trimethyl-3-thia-1,8,11,12-tetraazatricyclo[8.3.0.0^2,^6]trideca-2(6),4,7,10,12-pentaen-9-yl]acetamido}cyclobutoxy]piperidin-1-yl}acetamido)butanoyl]-4-hydroxy-N-[(1R)-2-hydroxy-1-[4-(4-methyl-1,3-thiazol-5-yl)phenyl]ethyl]pyrrolidine-2-carboxamide]	< 0.01 µM	100%
Cc1ncoc1-c1ccc([C@H](C)NC(=O)[C@@H]2C[C@@H](O)CN2C(=O)[C@@H](C(C)C)n2cc(-c3cccc(O[C@H]4C[C@@H](NC(=O)C[C@@H]5N=C(c6ccc(Cl)cc6)c6c(sc(C)c6C)-n6c(C)nnc65)C4)c3)cn2)cc1 [Example 285]	> 1 µM	44.4%
Cc1ncsc1-c1ccc(CNC(=O)[C@@H]2C[C@@H](O)CN2C(=O)[C@@H](C(C)C)n2cc(Oc3ccc(CNC(=O)C[C@@H]4N=C(c5ccc(Cl)cc5)c5c(sc(C)c5C)-n5c(C)nnc54)cc3)cn2)cc1 [Example 237]	> 1 µM	13.8%
Cc1ncsc1-c1ccc([C@H](C)NC(=O)[C@@H]2C[C@@H](O)CN2C(=O)[C@@H](C(C)C)n2cc(-c3ccnc(N4CCN(C(=O)C[C@@H]5N=C(c6ccc(Cl)cc6)c6c(sc(C)c6C)-n6c(C)nnc65)CC4)c3)cn2)cc1 [Example 323]	> 1 µM	43%
Cc1ncsc1-c1ccc([C@H](C)NC(=O)[C@@H]2C[C@@H](O)CN2C(=O)[C@@H](NC(=O)Cc2ccc(O[C@H]3C[C@@H](NC(=O)C[C@@H]4N=C(c5ccc(Cl)cc5)c5c(sc(C)c5C)-n5c(C)nnc54)C3)cc2)C(C)(C)C)cc1 [Example 185, (2S,4R)-1-[(2S)-3,3-dimethyl-2-(2-{4-[(1s,35)-3-{2-[(9S)-7-(4-chlorophenyl)-4,5,13-trimethyl-3-thia-1,8,11,12-tetraatetraazatricyclo[8.3.0.0^2,^6]trideca-2(6),4,7,10,12-pentaen-9-yl]acetamido}cyclobutoxy]phenyl}acetamido)butanoyl]-4-hydroxy-N-[(1S)-1-[4-(4-methyl-1,3-thiazol-5-yl)phenyl]ethyl]pyrrolidine-2-carboxamide]	< 0.01 µM	99.5%
Cc1ncsc1-c1ccc(CNC(=O)C2C[C@@H](O)CN2C(=O)[C@@H](NC(=O)COc2ccccc2OCCCNC(=O)C[C@@H]2N=C(c3ccc(Cl)cc3)c3c(sc(C)c3C)-n3c(C)nnc32)C(C)(C)C)cc1 (stereo partly shown) [Example 107]	0.01 to 0.1 µM	86.6%
Cc1ncsc1-c1ccc(CNC(=O)[C@@H]2C[C@@H](O)CC2C(=O)[C@@H](NC(=O)CO[C@H]2CCN(c3ccc([C@@H](C)NC(=O)C[C@@H]4N=C(c5ccc(Cl)cc5)c5c(sc(C)c5C)-n5c(C)nnc54)cc3)C2)C(C)(C)C)cc1 (stereo partly shown) [Example 66]	0.01 to 0.1 µM	89.4%
Cc1ncsc1-c1ccc([C@H](C)NC(=O)[C@@H]2C[C@@H](O)CN2C(=O)[C@H](C(C)C)n2cc(-c3ccnc(O[C@H]4C[C@H](NC(=O)C[C@@H]5N=C(c6ccc(Cl)cc6)c6c(sc(C)c6C)-n6c(C)nnc65)C4)c3)cn2)cc1 [Example 228, (2S,4R)-4-hydroxy-N-[(1S)-1-[4-(4-methyl-1,3-thiazol-5-yl)phenyl]ethyl]-1-[(2S)-3-methyl-2-(4-{2-[(1r,3r)-3-{2-[(9S)-7-(4-chlorophenyl)-4,5,13-trimethyl-3-thia-1,8,11,12-tetraazatricyclo[8.3.0.0^2,^6]trideca-2(6),4,7,10,12-pentaen-9-yl]acetamido}cyclobutoxy]pyridin-4-yl}-1H-pyrazol-1-yl)butanoyl]pyrrolidine-2-carboxamide]	< 0.01 µM	100%
Cc1ncsc1-c1ccc([C@H](C)NC(=O)[C@@H]2C[C@@H](O)CN2C(=O)[C@@H](C(C)C)n2cc(-c3cc(F)cc(OCCNC(=O)C[C@@H]4N=C(c5ccc(Cl)cc5)c5c(sc(C)c5C)-n5c(C)nnc54)c3)cn2)cc1 [Example 223]	0.1 to 1 µM	79%
Cc1ncsc1-c1ccc(CNC(=O)[C@@H]2C[C@@H](O)CN2C(=O)[C@@H](NC(=O)COCCCOCC#Cc2ccc([C@H](C)NC(=O)C[C@@H]3N=C(c4ccc(Cl)cc4)c4c(sc(C)c4C)-n4c(C)nnc43)cc2)C(C)(C)C)cc1 [Example 40]	0.01 to 0.1 µM	97.5%
Cc1ncsc1-c1ccc(CNC(=O)[C@@H]2C[C@@H](O)CN2C(=O)[C@H](C(C)C)n2cc(-c3cccc(O[C@H]4C[C@H](NC(=O)C[C@@H]5N=C(c6ccc(Cl)cc6)c6c(sc(C)c6C)-n6c(C)nnc65)C4)c3)cn2)cc1 [Example 217]	0.01 to 0.1 µM	91.9%
Cc1ncsc1-c1ccc(CNC(=O)[C@@H]2C[C@H](O)CN2C(=O)[C@@H](NC(=O)COCCCOCCCOc2ccc(NC(=O)C[C@@H]3N=C(c4ccc(Cl)cc4)c4c(sc(C)c4C)-n4c(C)nnc43)cc2)C(C)(C)C)cc1 [Example 18]	> 1 µM	39%
Cc1ncsc1-c1ccc([C@H](C)NC(=O)[C@@H]2C[C@@H](O)CN2C(=O)[C@@H](C(C)C)n2cc(-c3cc(O[C@H]4C[C@@H](NC(=O)C[C@@H]5N=C(c6ccc(Cl)cc6)c6c(sc(C)c6C)-n6c(C)nnc65)C4)ccn3)cn2)cc1 [Example 303]	> 1 µM	9.8%

More lines, main results first:

DC50	Compound	Emax
< 0.01 µM	Cc1ncsc1-c1ccc(CNC(=O)[C@@H]2C[C@@H](O)CN2C(=O)[C@@H](NC(=O)COc2ccc(O[C@H]3C[C@H](NC(=O)C[C@@H]4N=C(c5ccc(Cl)cc5)c5c(sc(C)c5C)-n5c(C)nnc54)C3)nc2)C(C)(C)C)cc1 [Example 140]	98%
< 0.01 µM	Cc1ncsc1-c1ccc([C@H](C)NC(=O)[C@@H]2C[C@@H](O)CN2C(=O)C(C(C)C)n2cc(-c3cccc(OCCNC(=O)C[C@@H]4N=C(c5ccc(Cl)cc5)c5c(sc(C)c5C)-n5c(C)nnc54)c3)cn2)cc1 (stereo partly shown) [Example 222]	100%
0.01 to 0.1 µM	Cc1sc2c(c1C)C(c1ccc(Cl)cc1)=N[C@@H](CC(=O)N[C@H]1C[C@H](Oc3ccc(CC(=O)N[C@H](C(=O)N4C[C@H](O)C[C@H]4C(=O)N[C@@H](C)c4ccc(-c5ncon5)cc4)C(C)(C)C)cc3)C1)c1nnc(C)n1-2 [Example 281]	91.4%
< 0.01 µM	Cc1ncsc1-c1ccc(CNC(=O)C2C[C@@H](O)CN2C(=O)[C@@H](NC(=O)COCCCOCCOc2cccc(NC(=O)C[C@@H]3N=C(c4ccc(Cl)cc4)c4c(sc(C)c4C)-n4c(C)nnc43)c2)C(C)(C)C)cc1 (stereo partly shown) [Example 94]	98.5%
0.01 to 0.1 µM	Cc1ncoc1-c1ccc([C@H](C)NC(=O)[C@@H]2C[C@@H](O)CN2C(=O)[C@H](C(C)C)n2cc(-c3ccnc(O[C@H]4C[C@@H](NC(=O)C[C@@H]5N=C(c6ccc(Cl)cc6)c6c(sc(C)c6C)-n6c(C)nnc65)C4)c3)cn2)cc1 [Example 277]	94%
< 0.01 µM	Cc1ncsc1-c1ccc(CNC(=O)[C@@H]2C[C@@H](O)CN2C(=O)[C@@H](c2cc(OCCCCCNC(=O)C[C@@H]3N=C(c4ccc(Cl)cc4)c4c(sc(C)c4C)-n4c(C)nnc43)no2)C(C)C)cc1 [Example 121]	98.5%
< 0.01 µM	Cc1ncsc1-c1ccc([C@H](C)NC(=O)[C@@H]2C[C@@H](O)CN2C(=O)[C@@H](NC(=O)/C=C/c2cccc(O[C@@H](C)CNC(=O)C[C@@H]3N=C(c4ccc(Cl)cc4)c4c(sc(C)c4C)-n4c(C)nnc43)c2)C(C)(C)C)cc1 [Example 158]	96.5%
< 0.01 µM	Cc1ncsc1-c1ccc([C@H](C)NC(=O)[C@@H]2C[C@@H](O)CN2C(=O)[C@@H](NC(=O)COCCCOCCCCOc2ccc3c(c2)c2c(C(N)=O)cc(-c4c(C)noc4C)cc2n3Cc2ccccc2)C(C)(C)C)cc1 [Example 166]	97%
< 0.01 µM	Cc1ncsc1-c1ccc([C@H](C)NC(=O)[C@@H]2C[C@@H](O)CN2C(=O)[C@@H](NC(=O)CN2CCC(N3CCN(C(=O)C[C@@H]4N=C(c5ccc(Cl)cc5)c5c(sc(C)c5C)-n5c(C)nnc54)CC3)CC2)C(C)(C)C)cc1 [Example 335]	97%
< 0.01 µM	Cc1ncsc1-c1ccc([C@H](C)NC(=O)[C@@H]2C[C@@H](O)CN2C(=O)[C@H](C(C)C)n2cc(-c3cccc(O[C@H]4C[C@@H](NC(=O)C[C@@H]5N=C(c6ccc(Cl)cc6)c6c(sc(C)c6C)-n6c(C)nnc65)C4)c3)cn2)cc1 [Example 243]	95.5%
< 0.01 µM	Cc1ncsc1-c1ccc([C@H](C)NC(=O)[C@@H]2C[C@@H](O)CN2C(=O)[C@@H](NC(=O)c2cc3ccc(O[C@@H](C)CNC(=O)C[C@@H]4N=C(c5ccc(Cl)cc5)c5c(sc(C)c5C)-n5c(C)nnc54)cc3o2)C(C)(C)C)cc1 [Example 221, (2S,4R)-1-[(2S)-2-[(6-{[(2S)-1-{2-[(9S)-7-(4-chlorophenyl)-4,5,13-trimethyl-3-thia-1,8,11,12-tetraazatricyclo[8.3.0.0^2,^6]trideca-2(6),4,7,10,12-pentaen-9-yl]acetamido}propan-2-yl]oxy}-1-benzofuran-2-yl)formamido]-3,3-dimethylbutanoyl]-4-hydroxy-N-[(1S)-1-[4-(4-methyl-1,3-thiazol-5-yl)phenyl]ethyl]pyrrolidine-2-carboxamide]	100%
< 0.01 µM	Cc1ncoc1-c1ccc([C@H](C)NC(=O)[C@@H]2C[C@@H](O)CN2C(=O)[C@@H](NC(=O)COc2ccc(O[C@H]3C[C@@H](NC(=O)C[C@@H]4N=C(c5ccc(Cl)cc5)c5c(sc(C)c5C)-n5c(C)nnc54)C3)nc2)C(C)(C)C)cc1 [Example 278]	95.4%
